The values below come from patent publication US10035790B2, “RORγ modulators” (BRISTOL-MYERS SQUIBB COMPANY, priority 2012, dated 2018).

The target of one experiment is T1, ligand binding domain of human RORγ (A262-S507) (Homo sapiens, UniProt P51449).
T1 construct: made in house; host or cells: E. coli
T1 sequence (P51449 262-507): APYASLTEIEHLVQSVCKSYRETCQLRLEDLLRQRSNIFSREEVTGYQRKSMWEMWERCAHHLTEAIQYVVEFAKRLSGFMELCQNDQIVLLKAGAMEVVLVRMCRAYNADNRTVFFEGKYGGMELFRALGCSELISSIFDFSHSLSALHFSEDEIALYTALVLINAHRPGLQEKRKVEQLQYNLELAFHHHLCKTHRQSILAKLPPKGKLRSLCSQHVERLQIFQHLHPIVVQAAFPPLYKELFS
As to the kind of experiment: General RORγ SPA binding assay (competition with [3H]25-hydroxycholesterol). The following applies: IC50, RORγ SPA binding assay, inhibition of [3H]25-hydroxycholesterol binding. A digest of the protocol:
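N-terminally His-tagged protein was expressed in E. coli and nickel-purified. Then 50 nM protein was preincubated with compound for 15 min at room temperature in PBS with 0.5% fatty acid free BSA, followed by radioligand for 15 min and copper His-tag SPA beads for 30 min. IC50 came from percent inhibition of binding.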
As to `CC(O)(COc1ccnc(C(F)(F)F)n1)c1cnc(N)nc1C1CCN(C(=O)Oc2ccc(F)cc2)CC1` (stereo not drawn) [Compound D50, 4-Fluorophenyl 4-[2-amino-5-(1-hydroxy-1-methyl-2-{[2-(trifluoromethyl)pyrimidin-4-yl]oxy}ethyl)pyrimidin-4-yl]piperidine-1-carboxylate], the IC50 – broadly, the concentration needed to halve the response being measured – is 15 nM. With `Nc1ncc(C(=O)COc2ccnc(C(F)(F)F)n2)c(C2CCN(C(=O)Oc3c(F)cccc3F)CC2)n1` [Compound M3, 2,6-Difluorophenyl 4-[2-amino-5-({[2-(trifluoromethyl)pyrimidin-4-yl]oxy}acetyl)pyrimidin-4-yl]piperidine-1-carboxylate], the IC50 was 19.1 nM.

Staying with this experiment, now noted: RORγ SPA binding assay, inhibition of [3H]25-hydroxycholesterol binding; read-out: IC50.
Take `Cc1ncc(C(=O)NCc2cccc(C#N)c2)c(C2CCN(C(=O)Cc3c(F)cccc3F)CC2)n1` [Compound A50, N-(3-cyanobenzyl)-4-(1-(2-(2,6-difluorophenyl)acetyl)piperidin-4-yl)-2-methylpyrimidine-5-carboxamide]: the IC50 was 7.1 nM. Still for that read-out and setting: to `Cc1cc(C)cc(CNC(=O)c2cnc(C)nc2C2CCN(C(=O)c3ccccc3Cl)CC2)c1` [Compound A24, 4-(1-(2-chlorobenzoyl)piperidin-4-yl)-N-(3,5-dimethylbenzyl)-2-methylpyrimidine-5-carboxamide] belongs 215 nM; to `Cc1ncc(C(C)(O)CNc2nccc(C(F)(F)F)n2)c(C2CCN(C(=O)Nc3c(F)cccc3F)CC2)n1` (stereo not drawn) [Compound D21, N-(2,6-Difluorophenyl)-4-[5-(1-hydroxy-1-methyl-2-{[4-(trifluoromethyl)pyrimidin-2-yl]amino}ethyl)-2-methylpyrimidin-4-yl]piperidine-1-carboxamide], 47.7 nM; to `CSc1ncc(C(C)=NOc2ccnc(C(F)(F)F)c2)c(C2CCN(C(=O)Nc3c(F)cccc3F)CC2)n1` (mixture of isomers) [Compound B52, N-(2,6-Difluorophenyl)-4-{2-(methylthio)-5-[(1E)-N-{[2-(trifluoromethyl)pyridin-4-yl]oxy}ethanimidoyl]pyrimidin-4-yl}piperidine-1-carboxamide], 334 nM. Still for that read-out and setting: as for `Cc1ncc(C(=O)NCc2cc(Cl)nc(Cl)c2)c(C2CCN(C(=O)Cc3c(F)cccc3F)CC2)n1` [Compound A49, N-((2,6-dichloropyridin-4-yl)methyl)-4-(1-(2-(2,6-difluorophenyl)acetyl)piperidin-4-yl)-2-methylpyrimidine-5-carboxamide], the figure is 6.8 nM; as for `Cc1nc(N)nc(C2CCN(C(=O)Nc3c(F)cccc3F)CC2)c1-c1cnc(-c2ccnc(C(F)(F)F)n2)o1` [Compound C70, 4-(2-Amino-6-methyl-5-{2-[2-(trifluoromethyl)pyrimidin-4-yl]-1,3-oxazol-5-yl}pyrimidin-4-yl)-N-(2,6-difluorophenyl)piperidine-1-carboxamide], 108 nM; as for `Cc1cc(C)cc(CNC(=O)c2cnc(C)nc2C2CCN(C(=O)Oc3c(F)cccc3F)CC2)c1` [Compound A120, 2,6-Difluorophenyl 4-[5-({[(3,5-dimethylphenyl)methyl]amino}carbonyl)-2-methylpyrimidin-4-yl]piperidine-1-carboxylate], 6 nM.

With `Cc1ncc(C(N)(C#N)COc2cccc(C(F)(F)F)n2)c(C2CCN(C(=O)Nc3c(F)cccc3F)CC2)n1` (stereo not drawn) [Compound N48, 4-[5-(1-Amino-1-cyano-2-{[6-(trifluoromethyl)pyridin-2-yl]oxy}ethyl)-2-methylpyrimidin-4-yl]-N-(2,6-difluorophenyl)piperidine-1-carboxamide], the IC50 was found to be 5.6 nM. Still for that read-out and setting: to `C/C(=N\Oc1ccnc(C(F)(F)F)n1)c1cnc(C)nc1C1CCN(C(=O)Cc2c(F)cccc2F)CC1` [Compound B20, (E)-2-(2,6-difluorophenyl)-1-(4-(2-methyl-5-(1-(((2-(trifluoromethyl)pyrimidin-4-yl)oxy)imino)ethyl)pyrimidin-4-yl)piperidin-1-yl)ethanone] belongs 15.8 nM; to `Cc1nc(C)c(-c2nnc(-c3ccnc(C(F)(F)F)n3)o2)c(C2CCN(C(=O)C(F)(F)c3c(F)cccc3F)CC2)n1` [Compound C43, 4-{1-[(2,6-difluorophenyl)(difluoro)acetyl]piperidin-4-yl}-2,6-dimethyl-5-{5-[2-(trifluoromethyl)pyrimidin-4-yl]-1,3,4-oxadiazol-2-yl}pyrimidine], 11.2 nM; to `Cc1ncc(C(=O)NCc2ccccc2)c(C2CCN(C(=O)Cc3c(F)cccc3F)CC2)n1` [Compound A69, N-benzyl-4-(1-(2-(2,6-difluorophenyl)acetyl)piperidin-4-yl)-2-methylpyrimidine-5-carboxamide], 144 nM. On the same count and under the same terms, to `C/C(=N\Oc1cccc(F)c1)c1cnc(C)nc1C1CCN(C(=O)Cc2c(F)cccc2F)CC1` [Compound B16, (E)-2-(2,6-difluorophenyl)-1-(4-(5-(1-((3-fluorophenoxy)imino)ethyl)-2-methylpyrimidin-4-yl)piperidin-1-yl)ethanone] belongs 5.9 nM.

Turning to `Cc1nc(C2CCN(C(=O)Cc3c(F)cccc3F)CC2)c(C(=O)NCc2cccc(C(F)(F)F)n2)c(=O)[nH]1` [Compound I1, 4-{1-[(2,6-Difluorophenyl)acetyl]piperidin-4-yl}-2-methyl-6-oxo-N-{[6-(trifluoromethyl)pyridin-2-yl]methyl}-1,6-dihydropyrimidine-5-carboxamide], the IC50 came to 40.3 nM. Still for that read-out and setting: as for `Cc1ncc(C(C)(O)COc2cncc(Cl)c2)c(C2CCN(C(=O)Cc3c(F)cccc3F)CC2)n1` (stereo not drawn) [Compound D13, 1-(4-(5-(1-((5-chloropyridin-3-yl)oxy)-2-hydroxypropan-2-yl)-2-methylpyrimidin-4-yl)piperidin-1-yl)-2-(2,6-difluorophenyl)ethanone], the figure is 8.9 nM; as for `Cc1cc(C)cc(CNC(=O)c2cnc(C)nc2C2CCN(C(=O)c3c(F)cccc3Cl)CC2)c1` [Compound A8, 4-(1-(2-chloro-6-fluorobenzoyl)piperidin-4-yl)-N-(3,5-dimethylbenzyl)-2-methylpyrimidine-5-carboxamide], 29.4 nM. On the same count and under the same terms, to `Cc1nc(C)c(-c2nnc(-c3ccnc(C(F)(F)F)n3)o2)c(C2CCN(C(=O)Cc3ncccc3Cl)CC2)n1` [Compound C42, 4-{1-[(3-Chloropyridin-2-yl)acetyl]piperidin-4-yl}-2,6-dimethyl-5-{5-[2-(trifluoromethyl)pyrimidin-4-yl]-1,3,4-oxadiazol-2-yl}pyrimidine] belongs 240 nM; to `CC(=O)NCCNCC(O)(COc1cccc(C(F)(F)F)n1)c1cnc(C)nc1C1CCN(C(=O)Nc2c(F)cccc2F)CC1` (stereo not drawn) [Compound N38, 4-{5-[2-{[2-(Acetylamino)ethyl]amino}-1-hydroxy-1-({[6-(trifluoromethyl)pyridin-2-yl]oxy}methyl)ethyl]-2-methylpyrimidin-4-yl}-N-(2,6-difluorophenyl)piperidine-1-carboxamide], 57.9 nM. In the case of `C/C(=N\Oc1cccc(OC(F)(F)F)c1)c1cnc(C)nc1C1CCN(C(=O)Cc2c(F)cccc2F)CC1` [Compound B7, (E)-2-(2,6-difluorophenyl)-1-(4-(2-methyl-5-(1-((3-(trifluoromethoxy)phenoxy)imino)ethyl)pyrimidin-4-yl)piperidin-1-yl)ethanone], the half-inhibitory concentration (IC50) was 10.6 nM.

`Cc1cc(C)cc(CNC(=O)c2cnc(C)nc2C2CCN(C(=O)[C@H](C)c3ccccc3)CC2)c1` [Compound A16, (R)-N-(3,5-dimethylbenzyl)-2-methyl-4-(1-(2-phenylpropanoyl)piperidin-4-yl)pyrimidine-5-carboxamide]: the half-inhibitory concentration (IC50) is 89 nM. The same measure, in the same setting: to `Cc1ncc(C(=O)COc2cccc(Cl)c2)c(C2CCN(C(=O)Cc3c(F)cccc3F)CC2)n1` [Compound M1, 2-(3-Chlorophenoxy)-1-(4-(1-(2-(2,6-difluorophenyl)acetyl)piperidin-4-yl)-2-methylpyrimidin-5-yl)ethanone] belongs 26 nM; to `Cc1nc(C)c(/C=N/Oc2cccc(C(F)(F)F)c2)c(C2CCN(C(=O)Nc3c(F)cccc3F)CC2)n1` [Compound B46, N-(2,6-Difluorophenyl)-4-{2,6-dimethyl-5-[(E)-({[3-(trifluoromethyl)phenyl]oxy}imino)methyl]pyrimidin-4-yl}piperidine-1-carboxamide], 106 nM. The same measure, in the same setting: to `C/C(=N\Oc1cc(C)cc(C)c1)c1cnc(C)nc1C1CCN(C(=O)Cc2c(F)cccc2F)CC1` [Compound B9, (E)-2-(2,6-difluorophenyl)-1-(4-(5-(1-((3,5-dimethylphenoxy)imino)ethyl)-2-methylpyrimidin-4-yl)piperidin-1-yl)ethanone] belongs 2.7 nM. The same measure, in the same setting: to `Cc1nc(C)c(C(=O)NNc2cccc(Cl)c2)c(C2CCN(C(=O)Cc3c(F)cccc3F)CC2)n1` [Compound G4, N′-(3-chlorophenyl)-4-(1-(2-(2,6-difluorophenyl)acetyl)piperidin-4-yl)-2,6-dimethylpyrimidine-5-carbohydrazide] belongs 12.1 nM; to `Cc1cc(C)cc(CNC(=O)c2c(C(C)C)nc(C)nc2C2CCN(C(=O)Cc3c(F)cccc3F)CC2)c1` [Compound A84, 4-(1-(2-(2,6-difluorophenyl)acetyl)piperidin-4-yl)-N-(3,5-dimethylbenzyl)-6-isopropyl-2-methylpyrimidine-5-carboxamide], 1650 nM.

Turning to `CC(=O)Nc1nc(C)c(C(COc2cccc(C(F)(F)F)n2)OC(C)=O)c(C2CCN(C(=O)Nc3c(F)cccc3F)CC2)n1` (stereo not drawn) [Compound N11, 1-[2-(Acetylamino)-4-(1-{[(2,6-difluorophenyl)amino]carbonyl}piperidin-4-yl)-6-methylpyrimidin-5-yl]-2-{[6-(trifluoromethyl)pyridin-2-yl]oxy}ethyl acetate], the IC50 is 37 nM.
